Assay results as given in ChEMBL document CHEMBL1201862, “PubChem BioAssay data set” (2004).
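In this assay, cells in 96-well plates receive the compound at five concentrations for 48 hours. Endpoints are linearly interpolated between the surrounding concentrations. The concentration for 50% growth inhibition is given as GI50.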 Activity calls are given as the source filed them. Cut-off read from the data, not from the text of the source: active = GI50 up to about 1.1 µM and inactive = higher.

Assays:
Assay in all cases: NCI tumour cell line growth inhibition, 48 h
[1] = system: HOP-92
[2] = system: CCRF-CEM
[3] = system: HCT-116
[4] = system: SNB-19
[5] = system: T47D
[6] = system: UACC-257
[7] = system: OVCAR-3
[8] = system: A498
[9] = system: 786-0
[10] = system: NCI/ADR-RES
[11] = system: MOLT-4
[12] = system: HOP-62
[13] = system: DU-145
[14] = system: EKVX
[15] = system: HCC 2998
[16] = system: RPMI-8226
[17] = system: SF-268
[18] = system: HL-60
[19] = system: NCI-H522
[20] = system: SR

Measured: GI50

O=c1c(C(c2ccc(/C=C/c3ccccc3)cc2)c2c(O)oc3ccccc3c2=O)c(O)oc2ccccc12
inactive: [1] 23.1 µM | [2] 41.4 µM | [3] 29.6 µM | [4] 46.9 µM | [5] 39.2 µM | [6] 53.7 µM | [7] 36 µM | [8] 30.5 µM | [9] 24.4 µM | [10] 24.9 µM | [11] 24.1 µM | [12] 27.8 µM | [13] 50.8 µM | [14] 28.6 µM | [15] 23.3 µM | [16] 27.2 µM | [17] 22.4 µM | [18] 49.3 µM | [19] 18.6 µM

O=C(O)CC(Sc1ccccc1)c1ccccc1 (configuration not stated)
inactive: [1] > 100 µM | [3] > 100 µM | [4] > 100 µM | [5] > 100 µM | [7] > 100 µM | [8] > 100 µM | [9] > 100 µM | [10] > 100 µM | [11] > 100 µM | [12] > 100 µM | [13] > 100 µM | [14] > 100 µM | [16] > 100 µM | [17] > 100 µM | [18] > 100 µM | [19] > 100 µM

OC[C@@H](O)[C@H](O)[C@@H](O)/C=N/Nc1ccc(Cl)nn1
inactive: [1] > 100 µM | [2] > 100 µM | [3] > 100 µM | [4] > 100 µM | [5] > 100 µM | [6] > 100 µM | [7] > 100 µM | [8] > 100 µM | [9] > 100 µM | [10] > 100 µM | [11] > 100 µM | [12] > 100 µM | [13] > 100 µM | [14] > 100 µM | [15] > 100 µM | [16] > 100 µM | [17] > 100 µM | [18] > 100 µM | [19] > 100 µM

CCOC(=O)c1ccc(-n2nnc(C(N)=O)c2O)cc1
inactive: [2] > 100 µM | [3] > 100 µM | [4] > 100 µM | [5] > 100 µM | [6] > 100 µM | [7] > 100 µM | [9] > 100 µM | [10] > 100 µM | [11] > 100 µM | [12] > 100 µM | [13] > 100 µM | [14] > 100 µM | [15] > 100 µM | [16] > 100 µM | [17] > 100 µM | [19] > 100 µM

O=C1/C(=C/c2cccs2)NC(=S)N1CN1CCOCC1
inactive: [1] > 100 µM | [2] > 100 µM | [3] > 100 µM | [4] > 100 µM | [6] 29 µM | [20] > 100 µM | [7] > 100 µM | [8] 42.9 µM | [9] > 100 µM | [10] > 100 µM | [11] > 100 µM | [12] > 100 µM | [13] > 100 µM | [14] > 100 µM | [16] > 100 µM | [17] > 100 µM

COc1ccc(C(=O)/C=C/c2ccc(OCCCOc3ccc(/C=C/C(=O)c4ccc(OC)cc4)cc3)cc2)cc1
inactive: [2] > 100 µM | [3] 24.7 µM | [4] > 100 µM | [5] > 100 µM | [6] > 100 µM | [20] > 100 µM | [9] > 100 µM | [10] > 100 µM | [11] > 100 µM | [12] > 100 µM | [13] > 100 µM | [14] > 100 µM | [15] > 100 µM | [16] 21.8 µM | [17] 52.2 µM | [18] > 100 µM

O=C(O)c1ccccc1C(=O)Nc1cc2c(cc1Br)-c1ccccc1C2=O
inactive: [1] 48.1 µM | [2] 45.9 µM | [3] > 100 µM | [4] > 100 µM | [5] > 100 µM | [6] > 100 µM | [7] 40.6 µM | [8] > 100 µM | [9] > 100 µM | [10] > 100 µM | [11] 79.8 µM | [12] > 100 µM | [13] 64.4 µM | [14] > 100 µM | [15] 23.2 µM | [16] > 100 µM | [17] > 100 µM | [18] 92.5 µM | [19] 59.7 µM

NC(C(=O)OC(=O)c1ccccc1)C(=O)OC(=O)c1ccccc1
inactive: [2] > 100 µM | [3] > 100 µM | [4] > 100 µM | [5] > 100 µM | [6] > 100 µM | [7] > 100 µM | [8] > 100 µM | [9] > 100 µM | [10] > 100 µM | [11] > 100 µM | [12] > 100 µM | [13] > 100 µM | [14] > 100 µM | [16] > 100 µM | [17] > 100 µM | [19] > 100 µM
